≈ marks a conversion by molar mass, not a printed value.
Tests used:
[1] = test system: broad spectrum of bacteria, gram positive and gram negative; settings: cited from earlier work
[2] = cited from earlier work
[3] = Hydrogen peroxide retention by extracts after desiccation and rehydration (colorimetric strips); assay type: physicochemical; settings: dissolved in 35% hydrogen peroxide, heated at 80° C., desiccated, rehydrated
Procedure: In order to compare the samples provided above, a test series was prepared in 30 ml tubes containing from 1 g-10 g of the above extracts of Chinese Gall, Green Tea, Pomegranate and Resveratrol. Each was dissolved in 20 ml of 35% hydrogen peroxide then separate to two aliquots. One part was heated at 80° C. to a dark viscous semi-liquid and allowed to desiccate to a final volume of 5 ml. Each was rehydrated and serially diluted to detection range.

Compound | MIC performance compared to the binding system [1] | water solubility [2] | peroxide retention capability [3]
RIFAXAMIN | performed poorly compared to the binding system | – | –
Oc1ccc(C=Cc2cc(O)cc(O)c2)cc1 [Resveratrol] | – | 3 µg/mL (≈ 13.1 µM) | relatively less ability to form stable perhydrates
